{
  "source": "patent US5959109A",
  "about": "“Compounds and methods for increasing endogenous levels of corticotropin-releasing factor” (Neurocrine Biosciences, Inc., priority 1996, dated 1999)",
  "key": {"Morris water maze test": {"assay": "Morris water maze test", "format": "in vivo, rat", "conditions": "1 or 20 mg/kg oral, 15 minutes prior to testing; FIGS. 4A, 4B", "experimental": "As discussed in more detail below (see Example 6), 15 minutes prior to training on each of days 1-3, groups of animals orally receive control solution or a dosage of the ligand inhibitor. Control animals typically reach the platform within five to ten seconds after three days of training. The measure of the memory modulator effects of a ligand inhibitor is a shift of this time period. Administration of a ligand inhibitor results in a dose-dependent increase in availability of synaptic CRF and a behavioral dose-dependent increase in acquisition and memory retention.\nThe Morris Water Maze Test is a simple spatial learning task that requires a minimal amount of stress and experience. […] The latency time to find a hidden platform is monitored. […]\nThe apparatus used in this test is a pool (46.4 cm in diameter, 45.7 cm high) filled to a depth of 23 cm with opaque water (22° C.-25° C.). […] The animal is placed into a designated quadrant of the tank and the time to approach and ascend the hidden platform is measured; the location of subject placement and platform remain constant throughout the experiment. […]\nRats were treated by oral administration with either vehicle or 1 or 20 mg/kg of either Compound No. 1 or Compound No. 153 15 minutes prior to testing. The latency time to reach the platform in the Morris water maze was recorded for each group."}, "[1]": {"assay": "Automated passive avoidance learning", "format": "in vivo, rat", "conditions": "oral, 5 minutes after training period; FIGS. 5A, 5B", "experimental": "FIGS. 5A and 5B are graphs depicting the effect of administration of representative ligand inhibitors of this invention, Compound Nos. 97-1 and 153, respectively. The ligand inhibitors were administered 5 minutes post-training period in the passive avoidance test.\nThe apparatus for both rats and mice is the same as used in active avoidance testing (see Example 14).\nFor the training trial, the animal is placed individually in one compartment of the learning apparatus, which is separated from a second compartment by a guillotine door. Following a three minute habituation period, the door is opened and the latency to enter the second compartment is recorded. When the animal enters with all four paws, the door is closed, and a 0.5 second AC footshock (Coulburn precision shocker) is delivered. After five seconds, the subject is removed and placed in its home cage. At the time of testing (usually 1-7 days later), the animal is returned to the compartment in which it was initially placed for the learning trial, the door is opened and the latency to enter the second compartment is recorded, but the animal is not shocked. […]\nFor most strains of rats with weights between 150 and 350 grams, an effective footshock intensity ranges from 0.2-1.0 mA. […] The latency time of rats to enter the dark compartment is measured. […]"}, "Elevated plus-maze test": {"assay": "Elevated plus-maze test", "format": "in vivo, rat", "conditions": "ICV", "description": "The Elevated plus-maze test predicts how animals respond to an approach-avoidance situation involving an exposed, lighted space versus a dark, enclosed area. In the maze, both spaces are elevated off the ground and constitute two runways intersecting in the form of a plus sign. This type of approach-avoidance situation is a classical test of \"emotionality\" and is very sensitive to treatments that produce disinhibition (such as sedative or hypnotic drugs) and stress. No motivational constraints are necessary and the animal is free to remain in the dark or venture out onto the open arms.\nThe elevated plus-maze apparatus has four arms (50 cm long, 10 cm wide) situated at right angles to each other and elevated from the floor (50 cm). Two of the arms are enclosed with walls (40 cm high) and two arms have no walls (open arms). Subjects are placed individually into the center of the maze and allowed free access to all four arms for a 5 minute testing period. The time spent in each arm is recorded automatically by photocell beams and a computer interface.\nGroups of 7-10 rats receive ICV injections of the ligand inhibitor. For purposes of comparison, rats also receive 0 or 0.1-25 μg of h/rCRF (1-41)."}, "CRF receptors": {"tested_on": "CRF receptors", "conditions": "rat, in vivo; cited from earlier work"}, "human CRF-BP": {"tested_on": "human CRF-BP", "conditions": "cited from earlier work"}, "[2]": {"conditions": "cited from earlier work"}, "CRF/CRF-BP complexes": {"tested_on": "CRF/CRF-BP complexes", "assay": "Disruption of CRF/CRF-BP complexes in human brain tissue in vitro", "format": "binding", "description": "Other peptide molecules, which are distinct from CRF, bind CRF-BP. For example, the human neuropeptide urocortin (Vaughan et al., Nature 378:287, 1995) has a high affinity for human CRF-BP. […] Thus, CRF-BP may be a modulator of a family of CRF-related peptides. […] Such disruption has the effect of increasing free CRF levels, thus making more CRF available for binding to its receptors. The ligand inhibitors of the present invention may also be used to elevate free levels of urocortin and other members of the CRF family in mammals. Assays for measuring the increase of urocortin (as well as other CRF-related peptides) are performed essentially as described herein for CRF, except that the appropriate detection molecules are employed (e.g., antibody to urocortin). Moreover, urocortin, sauvagine, urotensin, and the like and their analogues may be used to inhibit CRF/CRF-BP complexes and raise free CRF levels or inhibit urocortin/CRF-BP complexes and raise free urocortin levels."}},
  "note": "Ends that are not written are not given here.",
  "data": [
    {"compound": "COc1ccc(Cn2c(O)c(C=Nc3ncc(C)s3)c(=O)n(Cc3ccc(OC)cc3OC)c2=S)c(OC)c1", "note": "[Compound 153]", "values": [
      {"measurement": "latency time to reach the platform / performance", "setting": "Morris water maze test", "value": "improved performance at each time interval"},
      {"measurement": "latency time to entering the dark compartment", "setting": "[1]", "value": "increase in medium latency time"}
    ]},
    {"compound": "human CRF: peptide that regulates the release of adrenocorticotropin (ACTH), β-endorphin, and other POMC-derived peptides from the pituitary", "values": [
      {"measurement": "time on the open arms / performance", "setting": "Elevated plus-maze test", "value": "significantly more time on the open arms, indicating increased anxiety"},
      {"measurement": "carbachol-induced behaviors", "setting": "CRF receptors", "value": "inhibits carbachol-induced behaviors"},
      {"measurement": "affinity for CRF-BP", "setting": "human CRF-BP", "value": "high affinity"},
      {"measurement": "nocturnal food intake", "setting": "[2]; rat, in vivo", "value": "significant decrease on nocturnal food intake"},
      {"measurement": "temperature response in brown adipose tissue", "setting": "[2]; rat, in vivo", "value": "increased temperature response in brown adipose tissue"},
      {"measurement": "body weight", "setting": "[2]; rats", "value": "lowered body weight in rats"}
    ]},
    {"compound": "rat urocortin: rat urocortin (DDPPLSIDLTFHLLRTLLELARTQSQRERAEQNRIIFDSV; ends and bridges not checked; UniProt P55090 81-120, looked up)", "values": [
      {"measurement": "disruption of CRF/CRF-BP complexes", "setting": "CRF/CRF-BP complexes", "value": "can disrupt the CRF/CRF-BP complexes"}
    ]}
  ]
}
